The source of these data is PubChem BioAssay AID2060900 (Molecular Pharmacology Branch, DTP, NCI, 2025).

The subject of the assay is 521955-158-R2-J5-PDC complex spheroids, viability. The assay is described as follows: Anticancer human tumor 521955-158-R2-J5-PDC patient-derived pancreatic carcinoma cell line growth inhibition [RAS]. Conditions: for viability, T/C: stronger effect = lower value. Put shortly:
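Multi-cell-type spheroids: tumor cells plus HUVEC endothelial cells and mesenchymal stem cells. RAS-pathway inhibitors were combined with targeted agents, each dosed in half-log steps down from clinical Cmax, or from 10 microM when Cmax was unknown.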
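Further: compound exposure lasted seven days before the viability read.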
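Wherever viability, T/C is given: spheroids also contain HUVEC endothelial cells and mesenchymal stem cells as stroma.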

Regarding `CCN1CCN(Cc2ccc(Nc3ncc(F)c(-c4cc(F)c5nc(C)n(C(C)C)c5c4)n3)nc2)CC1` + C=CC(=O)N1CCN(c2nc(OCC3CCCN3C)nc3c(F)c(-c4nc(N)cc(C)c4C(F)(F)F)c(Cl)cc23)C(C)C1, the IC50 is greater than 1 µM (curve of first compound, second compound 0.00316 µM); greater than 1 µM (curve of first compound, second compound 0.01 µM); greater than 1 µM (curve of first compound, second compound 0.0316 µM); greater than 1 µM (curve of first compound, second compound 0.1 µM); greater than 1 µM (curve of first compound, second compound 0.316 µM); greater than 1 µM (curve of first compound, second compound 1 µM). Also, the viability, T/C is, setting by setting: (second compound 0.00316 µM, first compound 0.00316 µM) 121%; (second compound 0.00316 µM, first compound 0.01 µM) 89.3%; (second compound 0.00316 µM, first compound 0.0316 µM) 85.3%; (second compound 0.00316 µM, first compound 0.1 µM) 85.2%; (second compound 0.00316 µM, first compound 0.316 µM) 140%; (second compound 0.00316 µM, first compound 1 µM) 102%. Moreover, the viability, T/C reads like this: (second compound 0.01 µM, first compound 0.00316 µM) 87.2%; (second compound 0.01 µM, first compound 0.01 µM) 126%; (second compound 0.01 µM, first compound 0.0316 µM) 76.5%; (second compound 0.01 µM, first compound 0.1 µM) 120%; (second compound 0.01 µM, first compound 0.316 µM) 104%; (second compound 0.01 µM, first compound 1 µM) 108%. The viability, T/C (second compound 0.0316 µM, first compound 0.00316 µM) is 101%; the viability, T/C (second compound 0.0316 µM, first compound 0.01 µM) was 148%; the viability, T/C (second compound 0.0316 µM, first compound 0.0316 µM) is 88.9%; the viability, T/C (second compound 0.0316 µM, first compound 0.1 µM) was 110%; the viability, T/C (second compound 0.0316 µM, first compound 0.316 µM) is 93.6%; the viability, T/C (second compound 0.0316 µM, first compound 1 µM) was 98.4%. Moreover, the viability, T/C (second compound 0.1 µM, first compound 0.00316 µM) was 147%; the viability, T/C (second compound 0.1 µM, first compound 0.01 µM) was 103%; the viability, T/C (second compound 0.1 µM, first compound 0.0316 µM) was 115%; the viability, T/C (second compound 0.1 µM, first compound 0.1 µM) was 110%; the viability, T/C (second compound 0.1 µM, first compound 0.316 µM) is 108%; the viability, T/C (second compound 0.1 µM, first compound 1 µM) is 112%. Moreover, the viability, T/C is 145% (second compound 0.316 µM, first compound 0.00316 µM); 109% (second compound 0.316 µM, first compound 0.01 µM); 80.9% (second compound 0.316 µM, first compound 0.0316 µM); 96.4% (second compound 0.316 µM, first compound 0.1 µM); 107% (second compound 0.316 µM, first compound 0.316 µM); 97.6% (second compound 0.316 µM, first compound 1 µM). The viability, T/C is, setting by setting: (second compound 1 µM, first compound 0.00316 µM) 120%; (second compound 1 µM, first compound 0.01 µM) 92%; (second compound 1 µM, first compound 0.0316 µM) 81.8%; (second compound 1 µM, first compound 0.1 µM) 75.6%; (second compound 1 µM, first compound 0.316 µM) 93.5%; (second compound 1 µM, first compound 1 µM) 100%.

Take `C[C@@H](NC(=O)c1ncnc(N)c1Cl)c1ncc(C(=O)Nc2cc(C(F)(F)F)c(Cl)cn2)s1` + CCn1c(-c2cccnc2C(C)OC)c2c3cc(ccc31)N1CCOC(CC(NC(=O)C(C(C)C)N(C)C(=O)C3(F)CCN(C(=O)C#CC(C)(C)N(C)C)CC3)C(=O)N3CCCC(N3)C(=O)OCC(C)(C)C2)C1: the IC50 is, setting by setting: (curve of first compound, second compound 0.000949 µM) 5.93 µM; (curve of first compound, second compound 0.003 µM) greater than 10 µM; (curve of first compound, second compound 0.00949 µM) greater than 10 µM; (curve of first compound, second compound 0.03 µM) 10 µM; (curve of first compound, second compound 0.0949 µM) greater than 10 µM; (curve of first compound, second compound 0.3 µM) 1.51 µM. Also, the viability, T/C is, setting by setting: (second compound 0.000949 µM, first compound 0.0316 µM) 137%; (second compound 0.000949 µM, first compound 0.1 µM) 100%; (second compound 0.000949 µM, first compound 0.316 µM) 84.3%; (second compound 0.000949 µM, first compound 1 µM) 70.1%; (second compound 0.000949 µM, first compound 3.16 µM) 55.1%; (second compound 0.000949 µM, first compound 10 µM) 53.1%. Also, the viability, T/C by setting is: (second compound 0.003 µM, first compound 0.0316 µM) 111%; (second compound 0.003 µM, first compound 0.1 µM) 121%; (second compound 0.003 µM, first compound 0.316 µM) 85.6%; (second compound 0.003 µM, first compound 1 µM) 73.2%; (second compound 0.003 µM, first compound 3.16 µM) 64.2%; (second compound 0.003 µM, first compound 10 µM) 56.1%. In addition, the viability, T/C reads like this: (second compound 0.00949 µM, first compound 0.0316 µM) 118%; (second compound 0.00949 µM, first compound 0.1 µM) 94.8%; (second compound 0.00949 µM, first compound 0.316 µM) 89%; (second compound 0.00949 µM, first compound 1 µM) 60.1%; (second compound 0.00949 µM, first compound 3.16 µM) 70.7%; (second compound 0.00949 µM, first compound 10 µM) 63.6%. The viability, T/C by setting is: (second compound 0.03 µM, first compound 0.0316 µM) 91.1%; (second compound 0.03 µM, first compound 0.1 µM) 126%; (second compound 0.03 µM, first compound 0.316 µM) 69.1%; (second compound 0.03 µM, first compound 1 µM) 59.6%; (second compound 0.03 µM, first compound 3.16 µM) 68.6%; (second compound 0.03 µM, first compound 10 µM) 48%. Moreover, the viability, T/C was 122% (second compound 0.0949 µM, first compound 0.0316 µM); 99% (second compound 0.0949 µM, first compound 0.1 µM); 79.6% (second compound 0.0949 µM, first compound 0.316 µM); 56.7% (second compound 0.0949 µM, first compound 1 µM); 60.4% (second compound 0.0949 µM, first compound 3.16 µM); 58.8% (second compound 0.0949 µM, first compound 10 µM). Moreover, the viability, T/C (second compound 0.3 µM, first compound 0.0316 µM) is 131%; the viability, T/C (second compound 0.3 µM, first compound 0.1 µM) is 98%; the viability, T/C (second compound 0.3 µM, first compound 0.316 µM) is 71.6%; the viability, T/C (second compound 0.3 µM, first compound 1 µM) is 46.8%; the viability, T/C (second compound 0.3 µM, first compound 3.16 µM) was 48.1%; the viability, T/C (second compound 0.3 µM, first compound 10 µM) is 46.1%.

Regarding `CC(C)NCC(C(=O)N1CCN(c2ncnc3c2C(C)CC3O)CC1)c1ccc(Cl)cc1` (stereo not given), the viability, T/C runs as follows: (compound 0.0316 µM) 97.9% [middle of 4 runs]; (compound 0.1 µM) 99.3% [middle of 4 runs]; (compound 0.316 µM) 96% [middle of 4 runs]; (compound 1 µM) 60.5% [middle of 4 runs]; (compound 3.16 µM) 75.7% [middle of 4 runs]; (compound 10 µM) 72.5% [middle of 4 runs]. Also, the IC50 (curve of compound) was greater than 10 µM.

On to `Nc1ccn(C2OC(CO)C(O)C2(F)F)c(=O)n1` (stereo not given), for which the viability, T/C (compound 0.00316 µM) is 101% [middle of 4 runs]; the viability, T/C (compound 0.01 µM) was 79% [middle of 4 runs]; the viability, T/C (compound 0.0316 µM) is 79.1% [middle of 4 runs]; the viability, T/C (compound 0.1 µM) was 72.9% [middle of 4 runs]; the viability, T/C (compound 0.316 µM) was 36.5% [middle of 4 runs]; the viability, T/C (compound 1 µM) was 16.2% [middle of 4 runs]. The IC50 (curve of compound) was 183 nM [middle of 4 runs].

`O=C(c1ccc(F)c(F)c1Nc1ccc(I)cc1F)N1CC(O)([C@@H]2CCCCN2)C1`: the viability, T/C (compound 0.00316 µM) is 82% [middle of 4 runs]; the viability, T/C (compound 0.01 µM) was 71% [middle of 4 runs]; the viability, T/C (compound 0.0316 µM) is 51.7% [middle of 4 runs]; the viability, T/C (compound 0.1 µM) is 42.8% [middle of 4 runs]; the viability, T/C (compound 0.316 µM) is 33.9% [middle of 4 runs]; the viability, T/C (compound 1 µM) was 23.6% [middle of 4 runs]. The IC50 (curve of compound) was 40.1 nM [middle of 4 runs].
